Assay [1] concerns db/db mice. The assay is described as follows: Study 1: plasma N-glycan profile (GLYCANMAP, MALDI-TOF MS) and HbA1c in rosiglitazone-treated db/db mice. In kind it is in vivo. The following applies: 10 mpk oral once daily, vs vehicle. An excerpt: An initial study (Study 1) was an analysis of 160 plasma samples collected from rosiglitazone-treated mice following oral administration of 10 mpk once daily for up to 39 days. Rosigilitazone is an athiazolidinedione class of antidiabetic drug marketed by Glaxo under the trade name AVANDIA. […] These changes, on an individual N-glycan basis, reached high statistical significance (P<0.001) as early as seven days, a full two weeks prior to changes in HbA1c (day seven vs. day 21, respectively). […]
The objective of Study 1 was to evaluate N-linked glycosylation changes in plasma proteins that precede and predict the decrease in glycated hemoglobin (HbA1c) associated with successful resolution of diabetes. […] A baseline (Day 0) sample was not analyzed in the initial rosiglitazone study, but was included in the subsequent studies described in Examples 2 and 3.
GLYCANMAP Assay (a registered trademark of Ezose Sciences, Pine Brook, N.J.): A 10 μL aliquot of each plasma sample was spiked with internal standard (700 pmol) to aid in quantitation. The spiked aliquots were analyzed for N-linked glycans using GLYCANMAP methodology, which is based on the methods previously reported by Nishimura, Furukawa and Miura (Nishimura et al., Angew Chem. Int. Ed. Engl., 44: 91-96 (2004); Furukawa et al., Anal. Chem., 80: 1094-1101 (2008); Miura et al., Chem.-A Eur. J, 13: 4797-4804 (2007)). […]

The test system of assay [2] is db/db mice. Kind of assay: Study 3: plasma N-glycan profile in insulin detemir-treated db/db mice. In kind it is in vivo. The following applies: for Direction of Change, High Mannose glycan 520000 (Man5GlcNAc2) / Direction of Change, High Mannose glycan 620000 (Man6GlcNAc2) / Direction of Change, High Mannose glycan 720000 (Man7GlcNAc2) / Direction of Change, High Mannose glycan 820000 (Man8GlcNAc2) / Direction of Change, Hybrid glycan 430010 / Direction of Change, Hybrid glycan 530010 / Direction of Change, Hybrid glycan 630010: subcutaneous, two doses of 10 U/kg per day, days 7, 14, 21, vs vehicle. As for the experimental part:
In Study 3, changes in the N-linked glycosylation profile of total serum proteins obtained from diabetic mice were further characterized using a different drug-treatment to determine the drug specificity of the rosiglitazone-induced changes. In an animal study, insulin detemir was administered subcutaneously in two doses of 10 U/kg per day. Samples were collected from insulin detemir and vehicle-treated db/db mice at four time points (0, 7, 14, and 21 days). (Insulin detemir is a long-acting insulin marketed by Novo Nordisk under the trade name LEVEMIR.). […] The high mannose N-glycans that were decreased in the insulin-treated db/db mice were Man8GlcNAc2 (820000), Man7GlcNAc2 (720000), Man6GlcNAc2 (620000), and Man5GlcNAc2 (520000). The hybrid N-glycans that were decreased in the insulin-treated db/db mice were SiaGalGlcNAcMan3GlcNAc2 (430010), SiaGalGlcNAcMan4GlcNAc2 (530010), and SiaGalGlcNAcMan5GlcNAc2 (630010), wherein Sia is Neu5Ac or Neu5Gc.
The objective of this study was to evaluate the performance of candidate biomarkers discovered using rosiglitazone in mice treated with a diabetes drug with a different mechanism of action. The 16 candidate markers that were identified in Example 1 were evaluated in db/db mice treated with insulin detemir and vehicle.
In this Example, plasma samples were analyzed from ten db/db mice at baseline (0 days), and 20 db/db mice (ten vehicle and ten insulin detemir) at 7, 14, and 21 days. Sample preparation and analysis followed the protocol described in Example 1.
Data Analysis: For this study, the analysis was extended to evaluate changes in all detected N-glycans in order to reveal any novel N-glycan changes that might be specific to insulin detemir. The extended analysis was not performed in Study 2, which included only baseline and Day 7 time points since N-glycan changes at Day 7 could not be evaluated to determine if they are sustained over time. Drug-treated and vehicle-treated db/db mice were compared across each time point using the Student's t-test. To evaluate time-dependent changes, each time point within a treatment group was compared to its corresponding Day 0 group. N-glycans which yielded p-values <0.05 in this analysis were considered significant.
The concentrations of individual N-glycans in insulin detemir- and vehicle-treated db/db mice were compared at each time point using the Student's t-test. […] Time-dependence was also evaluated for each of the candidate markers by comparing each time point to baseline.

Where [3] appears, read: serum samples, vs non-treated controls.

Entries after “also recorded” stand apart in the source; their conditions may differ.

For the compound `CN(CCOc1ccc(CC2SC(=O)NC2=O)cc1)c1ccccn1` (stereo not drawn) [rosiglitazone], the “Time at which highly significant (p<0.001) change in HbA1c was achieved” value with db/db mice [1] is 21 days.
insulin detemir: in the assay on db/db mice [2] (setting [3]), the “Change in O-acetylated N-glycans” value was “No change”, the “Change in fucosylated N-glycans” value is recorded as “No change” and the “Change in tetraantennary N-glycans” value was “No change”. Also, in the assay on db/db mice [2], the “Direction of Change, High Mannose glycan 520000 (Man5GlcNAc2)” value was “decreased; also recorded: lower”; the “Direction of Change, High Mannose glycan 620000 (Man6GlcNAc2)” value was “decreased; also recorded: lower”; the “Direction of Change, High Mannose glycan 720000 (Man7GlcNAc2)” value is “decreased; also recorded: lower”; the “Direction of Change, High Mannose glycan 820000 (Man8GlcNAc2)” value was “decreased; also recorded: lower”. In the assay with db/db mice [2], the “Direction of Change, Hybrid glycan 430010” value is on record as “decreases; also recorded: lower”; the “Direction of Change, Hybrid glycan 530010” value was “decreases; also recorded: lower”; the “Direction of Change, Hybrid glycan 630010” value was “decreases; also recorded: lower”. Besides, in the assay on db/db mice [2] (listed as Insulin Detemir), the “Direction of Change, High Mannose glycan 520000 (Man5GlcNAc2)” value is reported as “Decreased”; the “Direction of Change, High Mannose glycan 620000 (Man6GlcNAc2)” value is “Decreased”; the “Direction of Change, High Mannose glycan 720000 (Man7GlcNAc2)” value was “Decreased”; the “Direction of Change, High Mannose glycan 820000 (Man8GlcNAc2)” value is on record as “Decreased”. Moreover, in the assay on db/db mice [2] (listed as Insulin Detemir), the “Direction of Change, Hybrid glycan 430010” value is on record as “Decreased”; the “Direction of Change, Hybrid glycan 530010” value is “Decreased”; the “Direction of Change, Hybrid glycan 630010” value is “Decreased”.

The values are drawn from patent US20150083906A1, “BIOMARKERS FOR MONITORING INTERVENTION THERAPIES FOR DIABETES” (MERCK SHARP & DOHME CORP., priority 2012, published 2015).
